In ChEMBL document CHEMBL1201862, “PubChem BioAssay data set” (2004) one finds CC50, IC50 and AC50 data, which are given here for six compounds.

Calls of active or inactive are those of the source.

The CC50 is the concentration at which the toxic effect on the cells reaches its halfway point. Broadly, the IC50 is the concentration needed to halve the response being measured. What is called AC50 is the concentration at which the activity in the assay is half-maximal.

Assay [1] deals with Vero. Briefly: viability of Vero cells under compound – cytotoxicity control for flavivirus capping enzyme inhibitors (AID 588742). Format: functional. To be noted: Chlorocebus sabaeus.
Assay [2] can be described thus: THP-1 cell cytotoxicity, dose response, cytotoxicity control for non-replicating M. tuberculosis project (AID 489025). It is filed as functional.
A short description of assay [3]: HepG2 cell cytotoxicity, dose response, cytotoxicity control for non-replicating M. tuberculosis project (AID 489018). It is filed as functional. To be noted: Mycobacterium tuberculosis.
The target in assay [4] is T1, Tyrosyl-DNA phosphodiesterase 2 (Homo sapiens, UniProt O95551).
T1 sequence (O95551 whole entry): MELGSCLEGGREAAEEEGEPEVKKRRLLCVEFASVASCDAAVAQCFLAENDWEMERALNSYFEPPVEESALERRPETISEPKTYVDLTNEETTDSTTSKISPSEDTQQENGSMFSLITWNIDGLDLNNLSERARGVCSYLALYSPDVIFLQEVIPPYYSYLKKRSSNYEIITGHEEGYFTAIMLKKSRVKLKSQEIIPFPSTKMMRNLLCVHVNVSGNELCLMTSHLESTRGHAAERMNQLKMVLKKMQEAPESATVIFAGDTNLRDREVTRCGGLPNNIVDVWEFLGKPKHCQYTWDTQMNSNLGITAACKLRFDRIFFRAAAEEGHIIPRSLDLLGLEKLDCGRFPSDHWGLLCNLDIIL
Kind of assay: potency against TDP2 phosphodiesterase activity – biochemical, epi absorbance, IC50, dose response (AID 743297).

Assay [5] has as its target Caspase-8 (Homo sapiens, UniProt Q14790). Briefly: inhibitors of purified CASP8 protease – biochemical, Z-IETD-R110 fluorescence, cherry-picked samples, selectivity assay for caspase-6 inhibitor project, dose response (AID 743294).
Assay [6] concerns the target T2, Caspase-3 (Homo sapiens, UniProt P42574).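 Further: Dose-response selectivity test against caspase-3 for candidate inhibitors of sentrin-specific proteases (SENPs).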
T2 sequence (P42574 whole entry): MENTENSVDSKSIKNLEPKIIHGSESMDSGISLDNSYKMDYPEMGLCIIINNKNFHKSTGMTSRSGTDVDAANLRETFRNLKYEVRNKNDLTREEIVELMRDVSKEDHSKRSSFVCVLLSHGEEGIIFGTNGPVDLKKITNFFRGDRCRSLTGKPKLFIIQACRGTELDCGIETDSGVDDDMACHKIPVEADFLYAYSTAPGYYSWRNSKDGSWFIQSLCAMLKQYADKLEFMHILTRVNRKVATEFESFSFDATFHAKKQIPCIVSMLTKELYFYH
It is filed as functional.

In assay [7] the target is T3, Caspase-6 (Homo sapiens, UniProt P55212).
T3 sequence (P55212 whole entry): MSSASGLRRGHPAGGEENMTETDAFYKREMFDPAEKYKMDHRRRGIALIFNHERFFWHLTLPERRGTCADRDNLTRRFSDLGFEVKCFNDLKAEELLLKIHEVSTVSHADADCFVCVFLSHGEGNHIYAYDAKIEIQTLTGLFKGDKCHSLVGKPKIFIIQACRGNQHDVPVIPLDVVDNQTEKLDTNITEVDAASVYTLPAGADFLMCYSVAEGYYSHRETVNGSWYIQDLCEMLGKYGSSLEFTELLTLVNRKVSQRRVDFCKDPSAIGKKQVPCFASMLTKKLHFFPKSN
Briefly: inhibition of CASP6 peptide cleavage – biochemical, VEID-R110 fluorescence, cherry-pick, dose response (AID 720632).

For assay [8], the target named is T4, Sentrin-specific protease 7 (Homo sapiens, UniProt Q9BQF6).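 Further: Luminescence-based dose-response confirmation of ultra-high-throughput screening hits, measuring inhibition of SENP7.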
T4 sequence (Q9BQF6 whole entry): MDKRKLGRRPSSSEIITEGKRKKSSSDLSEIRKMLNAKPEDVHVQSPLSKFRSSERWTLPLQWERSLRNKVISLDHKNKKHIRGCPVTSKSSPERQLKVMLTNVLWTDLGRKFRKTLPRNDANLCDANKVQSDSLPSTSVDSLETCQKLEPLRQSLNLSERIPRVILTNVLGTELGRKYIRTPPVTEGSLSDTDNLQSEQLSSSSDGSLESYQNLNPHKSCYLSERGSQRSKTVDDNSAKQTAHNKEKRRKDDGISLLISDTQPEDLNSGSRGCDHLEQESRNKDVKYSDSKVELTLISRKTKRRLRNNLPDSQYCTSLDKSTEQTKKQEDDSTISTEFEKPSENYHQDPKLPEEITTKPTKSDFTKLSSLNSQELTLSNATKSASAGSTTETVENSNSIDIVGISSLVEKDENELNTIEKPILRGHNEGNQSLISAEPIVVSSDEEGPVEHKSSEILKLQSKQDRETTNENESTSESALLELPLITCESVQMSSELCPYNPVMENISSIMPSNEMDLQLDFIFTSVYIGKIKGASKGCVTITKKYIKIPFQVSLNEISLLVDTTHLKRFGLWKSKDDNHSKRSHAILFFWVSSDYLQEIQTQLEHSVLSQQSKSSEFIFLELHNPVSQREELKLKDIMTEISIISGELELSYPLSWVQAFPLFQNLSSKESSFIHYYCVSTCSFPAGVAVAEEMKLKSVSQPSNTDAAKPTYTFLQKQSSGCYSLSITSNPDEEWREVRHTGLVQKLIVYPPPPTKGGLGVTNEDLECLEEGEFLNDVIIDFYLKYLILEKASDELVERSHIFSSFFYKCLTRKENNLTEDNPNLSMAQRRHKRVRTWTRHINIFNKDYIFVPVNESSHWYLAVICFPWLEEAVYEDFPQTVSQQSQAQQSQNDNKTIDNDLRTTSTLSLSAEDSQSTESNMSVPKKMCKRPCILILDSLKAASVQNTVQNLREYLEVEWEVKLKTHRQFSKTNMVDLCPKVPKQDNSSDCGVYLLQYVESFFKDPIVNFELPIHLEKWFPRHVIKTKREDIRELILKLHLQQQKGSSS
Format: functional.

Assay [9] addresses 1-phosphatidylinositol 4,5-bisphosphate phosphodiesterase beta-3 (Homo sapiens, UniProt Q01970). Kind of assay: Fluorescence-based biochemical high throughput dose response assay to identify inhibitors of phospholipase C isozymes (PLC-B3).
Assay [10] deals with 1-phosphatidylinositol 4,5-bisphosphate phosphodiesterase gamma-1 (Homo sapiens, UniProt P19174). Kind of assay: Counterscreen for inhibitors of phospholipase C isozymes (PLC-B3): Fluorescence-based biochemical high throughput dose response assay to identify inhibitors of phospholipase C isozymes (PLC-gamma1).
The target of assay [11] is T5, Cysteine protease ATG4B (Homo sapiens, UniProt Q9Y4P1).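 Further: Fluorescence-based dose-response confirmation assay measuring inhibition of ATG4B activity.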
T5 sequence (Q9Y4P1 whole entry): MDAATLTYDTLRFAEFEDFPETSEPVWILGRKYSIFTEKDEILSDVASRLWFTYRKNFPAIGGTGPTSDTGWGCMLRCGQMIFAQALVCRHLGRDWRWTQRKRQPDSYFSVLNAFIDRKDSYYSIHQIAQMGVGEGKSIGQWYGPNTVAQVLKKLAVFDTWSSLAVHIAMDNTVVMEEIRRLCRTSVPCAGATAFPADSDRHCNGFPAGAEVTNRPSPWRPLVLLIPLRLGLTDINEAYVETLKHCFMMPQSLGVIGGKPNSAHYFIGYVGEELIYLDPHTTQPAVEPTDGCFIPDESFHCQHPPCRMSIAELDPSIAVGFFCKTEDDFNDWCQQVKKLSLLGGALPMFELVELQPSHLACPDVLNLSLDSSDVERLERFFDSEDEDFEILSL
Format: functional.

Assay [12] has as its system INS1. Briefly: INS-1E survival protection against cytokine death – cell-based, luminescence, retest, dose response (AID 449756).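 Further: cell death triggered by IL-1 beta plus TNF-alpha plus IFN-gamma mixture; protective hits raise ATP signal compared with cytokine alone wells.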 Format: functional. To be noted: Rattus norvegicus.

Sequence of Caspase-8 (Q14790 217-374 limits assumed): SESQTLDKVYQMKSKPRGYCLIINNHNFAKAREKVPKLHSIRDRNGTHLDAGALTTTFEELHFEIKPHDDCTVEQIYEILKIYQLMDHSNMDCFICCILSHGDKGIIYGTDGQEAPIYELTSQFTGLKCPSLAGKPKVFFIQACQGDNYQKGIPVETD
Sequence of Caspase-8 (Q14790 385-479 limits assumed): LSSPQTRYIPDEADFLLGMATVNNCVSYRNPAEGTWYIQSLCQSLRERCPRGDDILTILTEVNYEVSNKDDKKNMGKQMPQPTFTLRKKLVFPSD
Sequence of 1-phosphatidylinositol 4,5-bisphosphate phosphodiesterase beta-3 (Q01970 whole entry): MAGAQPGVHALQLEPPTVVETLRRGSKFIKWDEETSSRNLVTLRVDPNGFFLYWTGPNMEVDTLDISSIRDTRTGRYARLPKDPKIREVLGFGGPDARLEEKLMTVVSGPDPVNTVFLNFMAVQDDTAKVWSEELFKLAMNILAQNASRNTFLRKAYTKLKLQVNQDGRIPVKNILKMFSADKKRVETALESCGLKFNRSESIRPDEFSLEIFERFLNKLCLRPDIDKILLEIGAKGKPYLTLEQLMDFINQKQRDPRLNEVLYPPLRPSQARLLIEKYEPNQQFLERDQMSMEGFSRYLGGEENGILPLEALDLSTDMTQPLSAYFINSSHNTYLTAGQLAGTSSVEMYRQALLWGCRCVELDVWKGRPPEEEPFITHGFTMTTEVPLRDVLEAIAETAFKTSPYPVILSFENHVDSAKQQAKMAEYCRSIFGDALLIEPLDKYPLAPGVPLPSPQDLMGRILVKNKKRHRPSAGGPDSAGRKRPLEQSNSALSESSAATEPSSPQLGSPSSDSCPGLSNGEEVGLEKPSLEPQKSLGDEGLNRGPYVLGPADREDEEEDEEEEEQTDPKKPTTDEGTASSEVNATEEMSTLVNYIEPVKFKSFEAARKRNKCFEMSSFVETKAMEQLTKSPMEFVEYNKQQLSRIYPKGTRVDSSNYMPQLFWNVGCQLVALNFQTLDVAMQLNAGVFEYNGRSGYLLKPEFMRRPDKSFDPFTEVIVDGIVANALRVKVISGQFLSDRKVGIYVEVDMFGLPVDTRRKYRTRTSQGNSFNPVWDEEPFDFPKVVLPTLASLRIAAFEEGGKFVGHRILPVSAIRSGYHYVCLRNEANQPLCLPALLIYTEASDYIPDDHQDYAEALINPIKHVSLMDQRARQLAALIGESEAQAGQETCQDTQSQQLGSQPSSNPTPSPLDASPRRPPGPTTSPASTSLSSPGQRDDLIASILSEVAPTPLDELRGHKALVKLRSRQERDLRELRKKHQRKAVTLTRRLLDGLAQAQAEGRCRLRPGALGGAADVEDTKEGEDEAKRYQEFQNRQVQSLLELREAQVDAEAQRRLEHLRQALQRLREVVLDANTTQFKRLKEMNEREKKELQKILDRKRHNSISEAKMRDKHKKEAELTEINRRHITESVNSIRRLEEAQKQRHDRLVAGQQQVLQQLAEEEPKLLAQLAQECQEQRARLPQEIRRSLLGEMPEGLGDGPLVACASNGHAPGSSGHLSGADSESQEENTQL
Sequence of 1-phosphatidylinositol 4,5-bisphosphate phosphodiesterase gamma-1 (P19174 whole entry): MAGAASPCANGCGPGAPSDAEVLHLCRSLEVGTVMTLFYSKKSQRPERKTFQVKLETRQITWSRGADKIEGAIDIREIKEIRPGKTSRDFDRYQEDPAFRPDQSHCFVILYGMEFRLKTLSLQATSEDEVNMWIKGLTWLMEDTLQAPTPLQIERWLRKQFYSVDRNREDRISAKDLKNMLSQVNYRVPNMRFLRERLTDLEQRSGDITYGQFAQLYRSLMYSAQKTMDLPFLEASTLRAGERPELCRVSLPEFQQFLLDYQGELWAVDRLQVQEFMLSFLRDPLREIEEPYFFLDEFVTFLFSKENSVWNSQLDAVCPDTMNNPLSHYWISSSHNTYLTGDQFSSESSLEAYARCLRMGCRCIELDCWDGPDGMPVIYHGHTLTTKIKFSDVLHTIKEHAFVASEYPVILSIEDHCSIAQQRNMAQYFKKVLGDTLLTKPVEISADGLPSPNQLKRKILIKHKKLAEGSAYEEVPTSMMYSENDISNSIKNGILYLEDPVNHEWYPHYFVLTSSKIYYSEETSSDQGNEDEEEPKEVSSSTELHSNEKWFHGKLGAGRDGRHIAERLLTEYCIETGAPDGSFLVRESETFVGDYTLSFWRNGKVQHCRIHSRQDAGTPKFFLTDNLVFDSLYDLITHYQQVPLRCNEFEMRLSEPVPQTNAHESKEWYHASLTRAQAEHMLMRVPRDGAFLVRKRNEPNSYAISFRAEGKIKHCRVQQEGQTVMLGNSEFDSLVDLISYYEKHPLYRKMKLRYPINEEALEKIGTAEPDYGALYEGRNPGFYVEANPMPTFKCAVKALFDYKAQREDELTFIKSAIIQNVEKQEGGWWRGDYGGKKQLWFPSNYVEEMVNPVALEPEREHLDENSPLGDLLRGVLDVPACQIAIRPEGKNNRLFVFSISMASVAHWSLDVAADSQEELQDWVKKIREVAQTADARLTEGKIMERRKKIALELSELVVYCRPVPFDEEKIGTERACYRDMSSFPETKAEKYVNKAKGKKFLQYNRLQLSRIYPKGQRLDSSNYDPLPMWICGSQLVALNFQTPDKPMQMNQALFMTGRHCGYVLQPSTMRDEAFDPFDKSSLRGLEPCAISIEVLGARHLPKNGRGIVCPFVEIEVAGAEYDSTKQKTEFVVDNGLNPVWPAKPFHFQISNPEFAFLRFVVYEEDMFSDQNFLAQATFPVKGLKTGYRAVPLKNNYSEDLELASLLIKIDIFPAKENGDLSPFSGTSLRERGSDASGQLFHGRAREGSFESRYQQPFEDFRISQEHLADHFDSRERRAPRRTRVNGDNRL

`COC(CNC(=O)c1ccc2c3c(onc13)-c1ccccc1C2=O)OC`: the CC50 was 20.4 µM (active) in assay [1], 7.86 µM (active) in [2] and 15.1 µM (active) in assay [3].
For the compound `COc1ccc(OC)c(Nc2cc3ccccc3c(O)n2)c1`, the IC50 is 24.9 µM (inactive) in assay [4], 1.88 µM (active) in assay [6] and 2.19 µM (active) in assay [8]. The AC50 was 6.14 µM (active) in assay [5] and 2.44 µM (active) in assay [7].
`O=C(O)c1ccc(NC2=C/C(=N/S(=O)(=O)c3ccccc3)c3ccccc3C2=O)cc1`: the cytotoxic concentration (CC50) in assay [1] is 31.4 µM (active). The IC50 was 1.88 µM (active) in [4]; > 122 µM (inactive) in assay [9]; 45.5 µM (inactive) in assay [10]; 4.5 µM (active) in assay [6]; 10.1 µM (active) in assay [11]; 2.06 µM (active) in assay [8].
On to `Nc1ccc2c(c1)C(=O)C(=O)c1ccccc1-2`, for which the IC50 in assay [4] was 1.34 µM (active); in assay [9], > 122 µM (inactive); in [10], 5.14 µM (active); in assay [11], 1.56 µM (active). Further, the AC50 in assay [12] is 1.06 µM (active). The cytotoxic concentration (CC50) in [2] was 2.74 µM (active); in assay [3], 7.59 µM (active).
For `CCCC(=O)NC(c1ccccc1OC)c1ccc2cccnc2c1O` (stereo not given), in [12], the AC50 was 1.14 µM (active).
In the case of `COc1cc(-c2ccc(Nc3ccccc3C(=O)O)c(OC)c2)ccc1Nc1ccccc1C(=O)O`, the concentration at half-maximal activity (AC50) in [5] was 48 µM (active); in [7], 4.6 µM (active).
